According to patent US9370521B2, “Targeting GLI proteins in human cancer by small molecules” (The Regents of the University of California, priority 2011, dated 2016):

What was measured:
[1] = system: Hedgehog signaling pathway; assay: Quantitative real-time RT-PCR of Hh pathway genes in xenograft tumors; assay type: in vivo, mouse; settings: Melanoma tumor (MelJuso) xenograft, pooled tumor from two mice, FIG. 4
Protocol: (§1) Total RNA was isolated using Qiagen RNeasy Mini Kit (Valencia, Calif.). Hybridization probes and primers (Table 1) were purchased from Applied Biosystems (ABI, Foster City, Calif.). cDNA synthesis and Taqman® PCR were performed according to the manufactures' protocols. The gene expression was assayed in triplicate in ABI 7300 Real-time PCR System. Samples were normalized to their housekeeping gene GAPDH and then calculated by using 2^−dCt method.
To examine whether Compounds 1, 2, 4, and 6 suppressed tumor growth through inhibition of the Hedgehog signaling pathway in vivo, expression of the key components and direct target genes of the Hh pathway (e.g. Gli1, Gli2, Gli3, HHIP and Cyclin D1) were analyzed by quantitative real-time RT-PCR using total RNA isolated from the xenograft tumors. GAPDH served as a control. This RT-PCR analysis was performed using a “pooled” tumor from two randomly selected mice of each group with reasonable size tumors. […] The results are shown in FIG. 4, where C is control and V is vehicle.

[2] = Histological examination (H&E) of organs for toxicity; assay type: in vivo; settings: mice, i.p. two doses daily for 6 days, FIGS. 8-11
Description: (§2) After the in vivo studies were completed, different organs were resected from mice. These organs included liver, lung, heart, kidney, intestines, ovary, brain, spleen, skin, and muscle. The specimens were fixed in 4% buffered formaldehyde, embedded in paraffin, sectioned, and histologically analyzed by hematoxylin and eosin (HE) staining. The HE stained slides were examined by a mouse pathologist for toxicity evidence from all the organs as compared with vehicle controls. In addition, leukocytes (WBC: white blood cell, NE: neutrophil, LY: lymphocyte, MO: monocyte, EO: eosinophil, BA: basophil) from each animal from all treatment groups were collected and leukocyte population was counted through a blood cell counter.
To analyze toxicity of the Compounds 1, 2, 4, and 6 in vivo, each group (three mice) was i.p. injected with two doses of each Compound daily for 6 days, and then major mouse organs, such as liver, spleen, kidney, and heart were resected from the mice. The specimens will be fixed in 4% buffered formaldehyde, embedded in paraffin, sectioned and histologically analyzed by hematoxylin and eosin (H&E) staining.

Wnt signaling pathway = assay: Quantitative real-time RT-PCR of Wnt pathway genes in xenograft tumors; assay type: in vivo, mouse; settings: Melanoma tumor xenograft, compared to controls, FIG. 4
Protocol: as §1
To examine whether Compounds 1, 2, 4, and 6 suppressed tumor growth through inhibition of the Wnt signaling pathway in vivo, expression of the key components and direct target genes of the Wnt pathway (e.g. Wnt2, Axin2, EGFR, and Cyclin D1) were analyzed by quantitative real-time RT-PCR using total RNA isolated from the xenograft tumors. GAPDH served as a control. This RT-PCR analysis was performed using a “pooled” tumor from two randomly selected mice of each group with reasonable size tumors. […] The results are shown in FIG. 4, where C is control and V is vehicle.

melanoma MelJuso = assay: In vivo efficacy, Mouse Xenograft Model (melanoma MelJuso); settings: 50 mg/kg i.p. daily for 14 days, FIG. 1; for Tumor growth after treatment: vs vehicle
Protocol: (§3) The administered compounds were tested in vivo in the mouse xenograft model bearing human cancer cells. Briefly, female athymic nude mice strain NCRNU-M (5-10 weeks old, 20-25 grams in weight; Taconic, Germantown, N.Y.) was maintained in pathogen-free conditions. Three human cancer cell lines: NSCLC A549, melanoma MelJuso, and mesothelioma MS-1 were used. Five or ten mice were used in each group and injected s.c. with 3×10^6 cancer cells in the dorsal area in a volume of 100 μl. After inoculation, human cancer cells were allowed to grow in mice for 10-13 days to become visible tumor nodules. Animals were then injected with a compound of the embodiments at a dose of 50 mg/kg body weight (1 mg/mouse per day). Vehicle alone was used as control. The compounds and controls were adjusted in 40 ul volume for i.p. injection in the abdomens of the mice. Injections were performed daily around the same time for 14 days. Tumors were allowed to grow for 1-2 additional weeks after completion of the compound treatments. Tumor size was measured every three to four days, and tumor volumes were calculated using width (x) and length (y) (x^2y/2, where x<y). Throughout this period, general toxicity of the treatments was also monitored by measuring body weight of the mice. Data was presented as mean values (±S.D.).
In vivo efficacy study of Compounds 1, 2, 4, and 6 were performed using a Mouse Xenograft Model (Melanoma MelJuso). Mice were injected s.c. with 3×10^6 cells in the dorsal area in a volume of 100 μl. 13 days after inoculation, the mice started receiving treatments with the administered compound at a dose of 50 mg/kg body weight daily for 14 days (n=10). Vehicle alone was used as control (n=10). The administered compounds and vehicle were adjusted in a volume of 40 μl for i.p. injection in the abdomens of the mice. Tumor size and tumor volumes were calculated as described above.

[3] = Preliminary in vivo toxicity: leukocyte population and body weight after in vivo treatment; parameters: species or system mouse; settings: mice; for Changes of leukocyte population: at completion of the in vivo studies, FIG. 5; for Loss of body weight: during the course of drug administration, FIG. 6
Protocol: as §3, §2
(§4) As preliminary in vivo toxicity study of Compounds 1, 2, 4, and 6, it was examined if there were changes of leukocyte population and loss of body weight in the mice after the treatment. At the completion of the in vivo studies as described herein, leukocytes (WBC: white blood cell, NE: neutrophil, LY: lymphocyte, MO: monocyte, EO: eosinophil, BA: basophil) from each animal from all treatment groups were collected and leukocyte population was counted through a blood cell counter. Body weights of control groups (n=10) and the treated group (n=10) were measured using a scale during the course of drug administration. […] In an additional toxicity study, effect of different doses of compounds 4 and 6 on the body weight of mice was examined. The compounds were i.p. injected in the abdomens at 3 different doses: 25, 50, and 100 mg/kg body weight to mice (3 mice per dosing group) for 6 consecutive days.

NSCLC A549 = assay: In vivo efficacy, Mouse Xenograft Model (lung cancer A549); settings: 50 mg/kg i.p. daily for 14 days then another 7 days, tumors weighed day 43, vs control group, FIG. 3
Protocol: as §3, with “Tumors were allowed to grow for 1-2 additional weeks after completion of the compound treatments.” left out, “Data was presented as mean values (±S.D.).” left out
In vivo efficacy study of Compounds 1 and 4 in Mouse Xenograft Model (NSCLC A549) was examined. […] 43 days after the initial tumor inoculation, tumors were dissected from the mice of each group and their weights were measured using a scale. […]

mesothelioma MS-1 = assay: In vivo efficacy, Mouse Xenograft Model (mesothelioma MS-1); settings: MS-1 xenograft, 50 mg/kg i.p. daily for 14 days, vs control group, FIG. 2
Protocol: as §3, with “Data was presented as mean values (±S.D.).” left out
Model (Mesothelioma MS-1). […] Tumor sizes was measured twice weekly until the completion of the experiments. […]

[4] = system: human MM cell lines (mesothelioma cells); assay: Combination treatment, MTS cell proliferation assay, MM (mesothelioma) cell lines; assay type: cell-based; settings: 72 hours, Combination Index
Description: (§5) Another assay for determining the number of viable cells in proliferation or cytotoxicity assays is the MTS assay, a colorimetric method. MTS assay reagents are commercially available (Promega Corp., Madison, Wis.). The reagent contains a tetrazolium compound [3-(4,5-dimethylthiazol-2-yl)-5-(3-carboxymethoxyphenyl)-2-(4-sulfophenyl)-2H-tetrazolium, inner salt; MTS] and an electron coupling reagent (phenazine ethosulfate; PES). PES has enhanced chemical stability, which allows it to be combined with MTS to form a stable solution. The MTS tetrazolium compound (Owen's reagent) is bioreduced by cells into a colored formazan product that is soluble in tissue culture medium. This conversion may be accomplished by NADPH or NADH produced by dehydrogenase enzymes in metabolically active cells. The quantity of formazan product as measured by the absorbance at 490 nm is directly proportional to the number of living cells in culture. Because the MTS formazan product is soluble in tissue culture medium, this assay requires fewer steps than procedures that use tetrazolium compounds such as MTT. The formazan product of MTT reduction is a crystalline precipitate that requires an additional step in the procedure to dissolve the crystals before recording absorbance readings at 570 nm.
(§6) Combination treatments of the Compounds with several chemotherapies: erlotinib (Tarceva®), PI3K inhibitor LY294002, TGFβ inhibitor SB431542, and pemetrexed (Alimta®) were performed in human NSCLC and MM cell lines (FIGS. 12-17). In all experiments, NSCLC and MM cell lines were treated with different doses of each compound or combination for 72 hours, and MTS assays were performed to determine the cell proliferations. Combination Index (CI), calculated by CalcuSyn software (Biosoft, Cambridge, UK), was applied to describe the effect of the combination effects of two compounds, where CI<1 indicates Synergism, CI=1 indicates Additive effects, and CI>1 indicates Antagonism. Student's t-tests were applied for statistical analysis.

[5] = Additional toxicity study: body weight at different doses; assay type: in vivo, mouse; settings: mice, i.p. 25, 50 and 100 mg/kg for 6 consecutive days, FIG. 7
Protocol: Each dosing group contained 3 mice. The body weight of mice was measured using a scale. Results are the means±SD (error bars).
as §4

human NSCLC cell lines = assay: Combination treatment, MTS cell proliferation assay, NSCLC cell lines; assay type: cell-based; settings: lung cancer cells, 72 hours, Combination Index
Description: as §5, §6

SMILES | Hh signaling (expression of Gli1, Gli2, Gli3, HHIP, Cyclin D1) in tumor [1] | Toxicity in organs (liver, spleen, kidney, heart), H&E histology [2] | Expression of the key indicator of canonical Wnt activation in tumor (Wnt signaling pathway) | Tumor weight after treatment (melanoma MelJuso) | Tumor growth after treatment (melanoma MelJuso) | Changes of leukocyte population [3] | Loss of body weight [3] | Tumor weight after treatment (NSCLC A549) | Tumor weight after treatment (mesothelioma MS-1) | Combination effect with erlotinib (Tarceva) ([4]; FIG. 13) | Loss of body weight [5] | Combination effect with erlotinib (Tarceva) (human NSCLC cell lines; FIG. 12) | Combination effect with PI3K inhibitor LY294002 ([4]; FIG. 15) | Combination effect with pemetrexed (Alimta) ([4]; FIG. 17) | Combination effect with PI3K inhibitor LY294002 (human NSCLC cell lines; FIG. 14) | Combination effect with TGFβ inhibitor SB431542 (human NSCLC cell lines; FIG. 16)
O=C(NCc1ccc(O)cc1)C1C(c2ccccc2)=NN(c2ccccc2)C1c1ccccc1 (stereo not drawn) [Compound 2, 1,3,5-triphenyl-4,5-dihydro-1H-pyrazole-4-carboxylic acid 4-hydroxy-benzylamide] | inhibited | No noticeable toxicity | significantly down-regulated | significantly decreased | dramatically suppressed | No noticeable changes | No noticeable changes of leukocyte population or loss of the body weight | – | – | – | – | – | – | – | – | –
CC(C)(CO)CCCNC(=O)C1C(c2ccccc2)=NN(c2ccccc2)C1c1ccsc1 (stereo not drawn) [Compound 1, 1,3-diphenyl-5-thiophen-3-yl-4,5-dihydro-1H-pyrazole-4-carboxylic acid (5-hydroxy-4,4-dimethyl-pentyl)-amide] | inhibited | No noticeable toxicity | significantly down-regulated | significantly decreased | dramatically suppressed | No noticeable changes | No noticeable changes of leukocyte population or loss of the body weight | significantly decreased | significantly decreased | – | – | – | – | – | – | –
CCCC1C(C(=O)NCCCC(C)(C)CO)C(c2ccc(F)cc2)=NN1c1ccccc1 (stereo not drawn) [Compound 4, 3-(4-fluoro-phenyl)-1-phenyl-5-propyl-4,5-dihydro-1H-pyrazole-4-carboxylic acid (5-hydroxy-4,4-dimethyl-pentyl)-amide] | inhibited | No noticeable toxicity | significantly down-regulated | significantly decreased | dramatically suppressed | No noticeable changes | No noticeable changes of leukocyte population or loss of the body weight | significantly decreased | significantly decreased | synergy | no noticeable loss | synergy | – | – | – | –
CC(C)(CO)CCCNC(=O)C1C(c2ccc(F)cc2)=NN(c2ccccc2)C1c1cccc(F)c1 (stereo not drawn) [Compound 6, 3-(4-fluoro-phenyl)-5-(3-fluoro-phenyl)-1-phenyl-4,5-dihydro-1H-pyrazole-4-carboxylic acid (5-hydroxy-4,4-dimethyl-pentyl)-amide] | inhibited | No noticeable toxicity | – | significantly decreased | dramatically suppressed | No noticeable changes | No noticeable changes of leukocyte population or loss of the body weight | – | – | – | no noticeable loss | – | synergy | synergy | synergy | synergy
